These results are taken from ChEMBL document CHEMBL5465560, “Selectivity Literature for EUbOPEN Chemogenomic Library” (2024).

Test [1] deals with Serine/threonine-protein kinase Nek6 (Homo sapiens) (UniProt Q9HC98). Conditions: at 10 µM.
Test [2] concerns the target T1, Myosin-IIIb (Homo sapiens) (UniProt Q8WXR4).
T1 sequence (whole entry): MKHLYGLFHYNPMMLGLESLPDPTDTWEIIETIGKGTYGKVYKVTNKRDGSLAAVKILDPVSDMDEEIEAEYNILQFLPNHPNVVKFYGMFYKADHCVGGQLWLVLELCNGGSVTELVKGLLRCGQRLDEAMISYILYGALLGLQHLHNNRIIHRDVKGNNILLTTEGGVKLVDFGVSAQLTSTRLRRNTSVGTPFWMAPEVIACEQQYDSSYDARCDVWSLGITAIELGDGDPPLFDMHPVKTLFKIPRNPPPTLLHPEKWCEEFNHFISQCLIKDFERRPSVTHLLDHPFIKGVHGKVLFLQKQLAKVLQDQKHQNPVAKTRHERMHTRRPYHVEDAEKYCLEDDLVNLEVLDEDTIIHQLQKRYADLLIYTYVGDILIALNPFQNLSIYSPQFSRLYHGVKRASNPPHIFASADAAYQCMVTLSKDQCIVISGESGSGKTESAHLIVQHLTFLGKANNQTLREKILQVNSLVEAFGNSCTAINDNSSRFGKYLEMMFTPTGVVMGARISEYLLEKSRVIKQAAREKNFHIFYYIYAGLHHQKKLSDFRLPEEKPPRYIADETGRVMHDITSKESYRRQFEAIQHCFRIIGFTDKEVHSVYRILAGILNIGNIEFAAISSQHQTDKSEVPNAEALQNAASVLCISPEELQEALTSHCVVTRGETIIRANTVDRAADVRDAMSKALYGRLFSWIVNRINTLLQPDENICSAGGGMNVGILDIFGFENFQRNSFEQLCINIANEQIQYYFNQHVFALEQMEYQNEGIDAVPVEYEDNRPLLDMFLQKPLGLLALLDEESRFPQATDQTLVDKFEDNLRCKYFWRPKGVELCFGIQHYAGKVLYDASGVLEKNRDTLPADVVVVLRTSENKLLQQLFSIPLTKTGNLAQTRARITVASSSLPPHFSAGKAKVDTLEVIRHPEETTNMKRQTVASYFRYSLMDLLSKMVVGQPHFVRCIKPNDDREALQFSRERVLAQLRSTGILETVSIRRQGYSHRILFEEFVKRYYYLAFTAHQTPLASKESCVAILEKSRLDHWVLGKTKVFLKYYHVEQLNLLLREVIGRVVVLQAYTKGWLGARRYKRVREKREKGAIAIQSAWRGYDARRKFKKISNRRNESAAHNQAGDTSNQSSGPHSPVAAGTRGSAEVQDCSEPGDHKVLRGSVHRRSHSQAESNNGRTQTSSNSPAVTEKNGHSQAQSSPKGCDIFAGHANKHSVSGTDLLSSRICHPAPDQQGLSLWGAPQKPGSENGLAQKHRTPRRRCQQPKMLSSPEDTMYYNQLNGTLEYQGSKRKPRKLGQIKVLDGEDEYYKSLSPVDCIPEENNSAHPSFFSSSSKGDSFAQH
Conditions: at 10 µM.

The target in test [3] is T2, Serine/threonine-protein kinase tousled-like 1 (Homo sapiens) (UniProt Q9UKI8).
T2 sequence (whole entry): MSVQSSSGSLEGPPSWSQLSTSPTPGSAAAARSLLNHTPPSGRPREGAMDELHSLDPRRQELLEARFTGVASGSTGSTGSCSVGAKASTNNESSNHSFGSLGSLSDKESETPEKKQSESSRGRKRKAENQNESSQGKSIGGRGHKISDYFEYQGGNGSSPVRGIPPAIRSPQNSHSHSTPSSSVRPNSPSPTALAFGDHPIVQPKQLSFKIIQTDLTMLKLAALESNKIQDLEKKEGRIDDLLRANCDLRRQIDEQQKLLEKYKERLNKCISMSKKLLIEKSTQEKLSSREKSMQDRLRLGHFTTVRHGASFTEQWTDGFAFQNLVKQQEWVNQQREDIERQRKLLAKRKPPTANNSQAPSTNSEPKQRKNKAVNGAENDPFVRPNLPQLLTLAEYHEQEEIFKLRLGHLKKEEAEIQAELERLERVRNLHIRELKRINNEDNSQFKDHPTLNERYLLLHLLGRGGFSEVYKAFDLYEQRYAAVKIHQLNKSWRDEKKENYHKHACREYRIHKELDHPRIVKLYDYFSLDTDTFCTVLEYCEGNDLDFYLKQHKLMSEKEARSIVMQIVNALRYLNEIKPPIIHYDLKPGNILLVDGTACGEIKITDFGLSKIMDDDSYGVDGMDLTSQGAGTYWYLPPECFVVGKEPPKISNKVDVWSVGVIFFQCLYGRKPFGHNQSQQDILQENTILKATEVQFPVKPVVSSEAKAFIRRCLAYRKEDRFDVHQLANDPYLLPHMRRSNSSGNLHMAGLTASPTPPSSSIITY
Put plainly: Selectivity interaction (KinomeScan (DiscoverX)) EUB0000045b TLK1.

The target in test [4] is T3, Inhibitor of nuclear factor kappa-B kinase subunit alpha (Homo sapiens) (UniProt O15111).
T3 sequence (whole entry): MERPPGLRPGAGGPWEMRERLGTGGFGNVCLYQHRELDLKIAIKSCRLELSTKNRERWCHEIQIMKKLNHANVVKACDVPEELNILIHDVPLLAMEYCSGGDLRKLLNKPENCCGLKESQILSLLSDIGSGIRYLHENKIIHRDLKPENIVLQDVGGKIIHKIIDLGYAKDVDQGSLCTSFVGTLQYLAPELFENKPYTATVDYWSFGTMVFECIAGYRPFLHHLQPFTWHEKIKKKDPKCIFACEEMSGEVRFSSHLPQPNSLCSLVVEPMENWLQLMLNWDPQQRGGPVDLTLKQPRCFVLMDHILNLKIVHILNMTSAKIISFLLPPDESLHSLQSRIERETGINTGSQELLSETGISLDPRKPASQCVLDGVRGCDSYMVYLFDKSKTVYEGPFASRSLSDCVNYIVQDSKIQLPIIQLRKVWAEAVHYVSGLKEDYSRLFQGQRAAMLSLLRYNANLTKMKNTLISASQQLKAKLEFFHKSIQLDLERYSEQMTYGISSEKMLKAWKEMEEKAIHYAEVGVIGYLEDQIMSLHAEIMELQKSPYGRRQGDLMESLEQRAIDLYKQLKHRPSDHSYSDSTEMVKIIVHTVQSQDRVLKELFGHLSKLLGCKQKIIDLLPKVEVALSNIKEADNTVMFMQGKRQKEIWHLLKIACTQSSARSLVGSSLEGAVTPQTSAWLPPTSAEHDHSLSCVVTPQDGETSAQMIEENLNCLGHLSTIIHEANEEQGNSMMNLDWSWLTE
Put plainly: Selectivity interaction (KinomeScan (DiscoverX)) EUB0000655a CHUK. Conditions: at 10 µM.

In test [5] the target is Tyrosine-protein kinase Fgr (Homo sapiens) (UniProt P09769). Put plainly: Selectivity interaction (KinomeScan (DiscoverX)) EUB0000092b FGR. Conditions: at 10 µM.
Chain of Tyrosine-protein kinase Fgr (Homo sapiens) (P09769 2-529 limits assumed): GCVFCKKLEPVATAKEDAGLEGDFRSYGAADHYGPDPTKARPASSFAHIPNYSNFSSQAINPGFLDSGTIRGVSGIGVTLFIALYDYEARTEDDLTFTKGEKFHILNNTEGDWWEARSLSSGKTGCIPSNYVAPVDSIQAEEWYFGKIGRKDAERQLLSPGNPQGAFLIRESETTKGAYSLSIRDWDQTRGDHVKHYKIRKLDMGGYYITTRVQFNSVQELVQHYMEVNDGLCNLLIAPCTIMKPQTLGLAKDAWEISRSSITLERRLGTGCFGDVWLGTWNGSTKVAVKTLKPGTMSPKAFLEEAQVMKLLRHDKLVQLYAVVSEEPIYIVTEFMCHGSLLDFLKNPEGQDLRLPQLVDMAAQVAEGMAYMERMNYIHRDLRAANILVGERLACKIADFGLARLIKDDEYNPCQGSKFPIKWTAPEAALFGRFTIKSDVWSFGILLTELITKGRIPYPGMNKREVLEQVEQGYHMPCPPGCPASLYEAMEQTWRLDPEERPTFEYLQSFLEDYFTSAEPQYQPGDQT

Chain of Serine/threonine-protein kinase Nek6 (Homo sapiens) (Q9HC98 whole entry): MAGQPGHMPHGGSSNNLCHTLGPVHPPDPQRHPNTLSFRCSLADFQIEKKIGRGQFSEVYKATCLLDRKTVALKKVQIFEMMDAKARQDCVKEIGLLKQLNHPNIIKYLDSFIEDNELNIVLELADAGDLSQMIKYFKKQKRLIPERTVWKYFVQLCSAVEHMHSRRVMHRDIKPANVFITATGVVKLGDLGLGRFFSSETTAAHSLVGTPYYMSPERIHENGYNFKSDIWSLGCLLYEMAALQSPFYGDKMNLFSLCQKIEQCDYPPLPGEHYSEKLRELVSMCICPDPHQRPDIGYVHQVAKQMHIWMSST

In test [1], `COCC(=O)NC/C=C/c1ccc2ncnc(Nc3ccc(Oc4ccc(C)nc4)c(C)c3)c2c1` [CP-724714] gave a % of control of 100%. Turning to `CCN(CC)CCCCNc1ncc2cc(-c3cc(OC)cc(OC)c3)c(NC(=O)NC(C)(C)C)nc2n1`, the % of control in test [2] was determined as 100%. Consider `C=CC(=O)Nc1cc(-n2c(=O)ccc3cnc4ccc(-c5ccc(NS(C)(=O)=O)cc5)cc4c32)ccc1C`, for which the % of control came out at 86% in test [3] (at 1 µM) and 96% in test [3] (at 10 µM). `CN(C)CCOc1ccc(-c2nc(-c3ccncc3)c(-c3ccc4c(c3)CC/C4=N\O)[nH]2)cc1` displayed a % of control in test [4] of 92%. With `CCC(=O)N1CCN(c2ccc(-n3c(=O)ccc4cnc5ccc(-c6cnc7ccccc7c6)cc5c43)cc2C(F)(F)F)CC1`, the % of control in test [5] is 78%.
